# pIC50: −log10 of the molar value.
# Legend:
# NCI-H1993 [1] = assay: Growth inhibition of wild type human NCI-H1993 cells incubated for 3 days by cell titer-glo luminescent cell viability assay; format: functional; details: NCI-H1993, 72 h
# NCI-H1993 [2] = assay: Growth inhibition of CRISPR/Cas9 modified human NCI-H1993 cells harboring cMET D1228V mutant incubated for 3 days by cell titer-glo luminescent cell viability assay; format: functional; details: NCI-H1993, 72 h
# [3] = molecular target: T1, Hepatocyte growth factor receptor (Homo sapiens, UniProt P08581); assay: Inhibition of c-Met phosphorylation at Tyr 1234/Tyr1235 residues in human NCI-H1993 cells incubated for 4 hrs by HTRF assay; format: cell-based
# [4] = molecular target: T2, Hepatocyte growth factor receptor (Homo sapiens, UniProt P08581, D1228V); assay: Inhibition of c-MET D1228V mutant phosphorylation at Tyr1234/Tyr1235 residues in CRISPR/Cas9 modified human NCI-H1993 cells incubated for 4 hrs by HTRF assay; format: cell-based
# [5] = molecular target: T1, Hepatocyte growth factor receptor; assay: Inhibition of wild type N-terminal NH-tagged and avi-tagged dephosphorylated c-MET (956 to 1390 residues) (unknown origin) expressed in sf21 cells using poly (Glu,Tyr) as substrate measured after 60 mins by ADP-Glo kinase assay
# [6] = molecular target: T2, Hepatocyte growth factor receptor; assay: Inhibition of N-terminal NH-tagged and avi-tagged dephosphorylated c-MET D1228V mutant (956 to 1390 residues) (unknown origin) expressed in sf21 cells using poly (Glu,Tyr) as substrate measured after 60 mins by ADP-Glo kinase assay
# NCI-H1993 [7] = assay: Resistance index, ratio of GI50 for CRISPR/Cas9 modified human NCI-H1993 cells harboring cMET D1228V mutant to GI50 for wild type human NCI-H1993 cells by cell-titer glo luminescent cell viability assay; format: functional
GI50 (NCI-H1993 [1]) [nM],GI50 (NCI-H1993 [2]) [nM],pIC50 [3],pIC50 [4],pIC50 [5],pIC50 [6],SMILES,RatioGI50 (NCI-H1993 [7])
61.7,52.5,–,–,–,–,COc1cc2c(Oc3ccc(NC(=O)C4(C(=O)Nc5ccc(F)cc5)CC4)cc3F)ccnc2cc1OCCCN1CCOCC1 [FORETINIB],–
–,–,6.67 to 7.91,6.67 to 7.91,> 8.60,> 8.60,CCOc1ccn(-c2ccc(F)cc2)c(=O)c1C(=O)Nc1ccc(Oc2ccnc(N)c2Cl)c(F)c1 [BMS-777607],–
9.33,8320,8.70,< 4.50,> 8.60,6.17,C[C@@H](c1ccc2nccn2c1)n1nnc2ncc(-c3cnn(C)c3)nc21 [SAVOLITINIB],> 800
